Measurements as given in patent US9403806B1, “Cognition enhancing compounds and compositions, methods of making, and methods of treating” (NeuroSolis, Inc., priority 2010, dated 2016).

What was measured:
[1] = Blood and brain concentrations (rats), oral gavage; type: in vivo, Long-Evans Hooded rats; details: rat, 10 mg/kg po, 1 hr, relative to MCD-386 = 1.00
Experimental: Long-Evans Hooded rats (Charles River: male, 250-350 g) were dosed with solutions of test compounds in PBS by oral gavage. At the desired time after dosing, the animals were anesthetized with isoflurane, and then euthanized by cervical dislocation. Blood was obtained by cardiac puncture, transferred to a 1.5 mL microcentrifuge tube containing 15U Heparin, and the plasma recovered after centrifugation. Brains were dissected, weighed, immediately chilled to 4° C., and homogenized using a PowerGen 125 homogenizer in five volumes of ice-cold 2% formic acid. Proteins were precipitated from plasma and brain homogenate with two and five volumes respectively of ice-cold 2% formic acid and clarified by centrifugation. The supernatant was ultra-filtered by centrifugation through a 3K MWCO spin column (Pall Life Sciences), following the manufacturer's instructions. The concentration of compound in the ultra-filtrate was subjected to reverse-phase liquid chromatography using a 150×2.1 mm Agilent C8 reverse-phase column on a Shimadzu Prominence LC, eluting the compounds with a gradient of 2% to 50% of acetonitrile+0.1% formic acid for compound MI-50,382, or an isocratic flow of 2% acetonitrile+0.1% formic acid for the rest of the compounds listed. The concentration of the compound in the column effluent was measured using an Applied Biosystems API-3200 triple quadrupole mass spectrometer equipped with an electrospray sample injection system. The counts of the characteristic parent and product ions of each test compound were converted to concentration units by comparison with a standard calibration curve.

rat M3 receptors = biological target: T1, rat M3 receptors (Rattus norvegicus, UniProt P08483); experiment: PI turnover (inositol phosphate production) in M3-CHO cells; type: cell-based; details: mean Smax relative to carbachol (100.0); CHO cells expressing rat M3
T1 construct: host or cells: CHO (M3-CHO)
Experimental: The medium was changed to 70 μL/well of inositol-free DMEM containing 2 mM glutamine, 10% FBS and 10 μCi/ml of [3H]-inositol (PE:cat # NET114A250UC), incubated overnight as above, then 100 μL of a solution of the test compound in HBSS containing 10 mM LiCl and 20 mM HEPES, pH 7.4 was added, incubation was continued for 60 min under the above conditions, and the test was stopped by removing the test compound and replacing with 100 μL of 50 mM formic acid in water at 4° C. […] The compounds in Table 1 are all dihydropyrimidine-oxadiazoles which vary only at the oxadiazole side chain.

[2] = tested on: healthy male volunteer human subjects; experiment: Monitoring of cholinergic side effects in healthy volunteers; type: in vivo; details: 6 subjects
Experimental: A single 5 mg capsule or 5×0.2 mg capsules (1 mg total dose) were administered orally to healthy male volunteer human subjects with 125 ml of water. Six such subjects receiving the 5 mg dose, and a different 6 subjects received the 1 mg dose.
Subjects were monitored, among other things, for typical signs of muscarinic cholinergic action, such as increased salivation, lachrimation and diaphoresis.

[3] = Metabolites in serum and urine of dosed rats (LC-MS); type: in vivo; details: rat serum or urine, 10 mg/kg po
Experimental: Oxadiazoles disclosed herein as well as other oxadiazoles were investigated to determine the formation of metabolites. Animals were dosed, blood taken, serum prepared, serum proteins precipitated and ultrafiltrates prepared as described in Example 6. In separate experiments, urine was collected from rats for 16-24 hours after dosing, using standard metabolic cages. The urine container and collected urine were maintained at 4° C. Urine was lyophilized, taken back into water. The uftrafiltrate was prepared by adding formic acid to a final concentration of 1% to the urine samples, then filtered through a 0.2 um nylon membrane. The ultrafiltrate was subjected to LC-MS analysis. Instead of measuring the product ions in Q3, manual Q1 scans of the liquid chromatograph were undertaken, seeking parent ions of potential metabolites of the compounds. The criteria for identifying metabolites were as follows: (1) the ion should be present in the sera or urines of dosed rats, but not in sera or urines from non-dosed rats (2) the ion should be identifiable as a metabolic derivative of the dosed compound (e.g. loss of a functional chemical moiety, addition of a hydroxyl group or a glucuronic acid moiety, etc). Metabolites were determined not to be present if no compound meeting the above criteria could be detected in serum or urine.

[4] = Plasma concentration in rats, iontophoresis patch versus oral gavage; type: in vivo, Long Evans Hooded rat; details: rat
Source text: Two patches were made up, consisting (in order from the outer layer to the skin contacting surface, respectively): adhesive tape (Transpore, 27 mm wide, 3M), circular stainless steel electrodes (22 mm dia) with a central hole for a stainless steel machine screw to which the electrode wire was attached, and 2 layers of 3MM CHR filter paper (Cat #3030-861, Whatman International, Ltd).
The mid-dorsal area of a Long Evans Hooded rat (approximate weight, 320 grams), surgically prepared with a jugular vein catheter (Charles River), was shaved and the skin was then cleaned using an Electrode Prep Pad (Professional Disposables, Inc, Cat #B59800). […]
Blood (400 μl) was withdrawn from the catheters in each rat every 30 minutes, transferred to 1.5 ml centrifuge tubes containing heparin (15 units/tube), and the plasma was separated by centrifugation from the cellular components. The plasma samples were maintained at 4 deg C. until analyzed. […]
The ultra-filtrates were subjected to reverse-phase liquid chromatography using a 150×2.1 mm Agilent C8 reverse-phase column on a Shimadzu Prominence LC, eluting the MCD-386 with an isocratic flow of 2% acetonitrile+0.1% formic acid. The concentration of MCD-386 in the column effluent was measured using an Applied Biosystems API-3200 triple quadrupole mass spectrometer equipped with a Turbo V source (electrospray sample injection) system. […]

T1 sequence (P08483 whole entry): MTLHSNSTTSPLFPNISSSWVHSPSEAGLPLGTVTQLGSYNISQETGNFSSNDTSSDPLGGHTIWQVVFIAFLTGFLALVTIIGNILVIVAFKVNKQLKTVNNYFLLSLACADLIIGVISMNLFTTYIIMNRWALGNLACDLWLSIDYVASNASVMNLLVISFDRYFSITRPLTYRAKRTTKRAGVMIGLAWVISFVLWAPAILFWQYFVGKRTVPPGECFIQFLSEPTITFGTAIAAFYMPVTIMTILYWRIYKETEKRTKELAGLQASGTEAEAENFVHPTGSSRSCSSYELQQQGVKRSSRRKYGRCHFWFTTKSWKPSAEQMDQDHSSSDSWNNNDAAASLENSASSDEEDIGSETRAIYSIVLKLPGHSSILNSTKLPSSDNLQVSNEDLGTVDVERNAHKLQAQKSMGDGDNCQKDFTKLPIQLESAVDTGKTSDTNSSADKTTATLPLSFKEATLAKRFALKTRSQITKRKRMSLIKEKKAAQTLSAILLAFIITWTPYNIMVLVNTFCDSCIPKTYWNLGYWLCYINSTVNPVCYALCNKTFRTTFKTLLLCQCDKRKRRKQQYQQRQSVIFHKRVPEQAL

## CCc1noc(C2CN=CNC2)n1 (stereo not shown) [MCD-386, 3-ethyl-5-(1,4,5,6-tetrahydropyrimidin-5-yl)-1,2,4-oxadiazole]
[1]
  Brain Cmax (10 mg/kg po) 1 hr MCD-386 = 1.00: 1.00
Rat M3 receptors
  M3/CHO PI turnover Relative Mean Smax: 46.4
[2]; 1 mg total oral dose cohort
  observable cholinergic side effects: none of the subjects in the 1 mg total dose cohort experienced any observable cholinergic side effects
[2]; 5 mg oral dose cohort
  observable cholinergic side effects: four subjects showed signs of muscarinic cholinergic activity
[3]
  Presence of metabolites (10 mg/kg po): Yes
[4]
  bioavailability by transdermal delivery versus oral administration: up to three times higher
[4]; iontophoresis patch, dose 3.2 mg/kg, 30 minutes
  Plasma Concentration: 848 nM
